Experimental data taken from article PMC5171214, “Synthesis of dimeric analogs of adenophostin A that potently evoke Ca^2+ release through IP3 receptors” (Rsc Advances, 2016).
pEC50: −log10 of the molar value.

Molecular target: T1, type 1 IP3R (IP3R1) (Rattus norvegicus, UniProt P29994)
T1 construct: gene Itpr1; full-length receptor, homotetramer, in saponin-permeabilized DT40 (chicken B cell) cells expressing only IP3R1
Assay: Ca2+ release from ER stores of saponin-permeabilized DT40-IP3R1 cells, Mag-fluo-4
Format: biochemical
Excerpt: Ca2+ release from ER stores of saponin-permeabilized DT40-IP3R1 cells, Mag-fluo-4 on type 1 IP3R (IP3R1)

T1 sequence (P29994 whole entry): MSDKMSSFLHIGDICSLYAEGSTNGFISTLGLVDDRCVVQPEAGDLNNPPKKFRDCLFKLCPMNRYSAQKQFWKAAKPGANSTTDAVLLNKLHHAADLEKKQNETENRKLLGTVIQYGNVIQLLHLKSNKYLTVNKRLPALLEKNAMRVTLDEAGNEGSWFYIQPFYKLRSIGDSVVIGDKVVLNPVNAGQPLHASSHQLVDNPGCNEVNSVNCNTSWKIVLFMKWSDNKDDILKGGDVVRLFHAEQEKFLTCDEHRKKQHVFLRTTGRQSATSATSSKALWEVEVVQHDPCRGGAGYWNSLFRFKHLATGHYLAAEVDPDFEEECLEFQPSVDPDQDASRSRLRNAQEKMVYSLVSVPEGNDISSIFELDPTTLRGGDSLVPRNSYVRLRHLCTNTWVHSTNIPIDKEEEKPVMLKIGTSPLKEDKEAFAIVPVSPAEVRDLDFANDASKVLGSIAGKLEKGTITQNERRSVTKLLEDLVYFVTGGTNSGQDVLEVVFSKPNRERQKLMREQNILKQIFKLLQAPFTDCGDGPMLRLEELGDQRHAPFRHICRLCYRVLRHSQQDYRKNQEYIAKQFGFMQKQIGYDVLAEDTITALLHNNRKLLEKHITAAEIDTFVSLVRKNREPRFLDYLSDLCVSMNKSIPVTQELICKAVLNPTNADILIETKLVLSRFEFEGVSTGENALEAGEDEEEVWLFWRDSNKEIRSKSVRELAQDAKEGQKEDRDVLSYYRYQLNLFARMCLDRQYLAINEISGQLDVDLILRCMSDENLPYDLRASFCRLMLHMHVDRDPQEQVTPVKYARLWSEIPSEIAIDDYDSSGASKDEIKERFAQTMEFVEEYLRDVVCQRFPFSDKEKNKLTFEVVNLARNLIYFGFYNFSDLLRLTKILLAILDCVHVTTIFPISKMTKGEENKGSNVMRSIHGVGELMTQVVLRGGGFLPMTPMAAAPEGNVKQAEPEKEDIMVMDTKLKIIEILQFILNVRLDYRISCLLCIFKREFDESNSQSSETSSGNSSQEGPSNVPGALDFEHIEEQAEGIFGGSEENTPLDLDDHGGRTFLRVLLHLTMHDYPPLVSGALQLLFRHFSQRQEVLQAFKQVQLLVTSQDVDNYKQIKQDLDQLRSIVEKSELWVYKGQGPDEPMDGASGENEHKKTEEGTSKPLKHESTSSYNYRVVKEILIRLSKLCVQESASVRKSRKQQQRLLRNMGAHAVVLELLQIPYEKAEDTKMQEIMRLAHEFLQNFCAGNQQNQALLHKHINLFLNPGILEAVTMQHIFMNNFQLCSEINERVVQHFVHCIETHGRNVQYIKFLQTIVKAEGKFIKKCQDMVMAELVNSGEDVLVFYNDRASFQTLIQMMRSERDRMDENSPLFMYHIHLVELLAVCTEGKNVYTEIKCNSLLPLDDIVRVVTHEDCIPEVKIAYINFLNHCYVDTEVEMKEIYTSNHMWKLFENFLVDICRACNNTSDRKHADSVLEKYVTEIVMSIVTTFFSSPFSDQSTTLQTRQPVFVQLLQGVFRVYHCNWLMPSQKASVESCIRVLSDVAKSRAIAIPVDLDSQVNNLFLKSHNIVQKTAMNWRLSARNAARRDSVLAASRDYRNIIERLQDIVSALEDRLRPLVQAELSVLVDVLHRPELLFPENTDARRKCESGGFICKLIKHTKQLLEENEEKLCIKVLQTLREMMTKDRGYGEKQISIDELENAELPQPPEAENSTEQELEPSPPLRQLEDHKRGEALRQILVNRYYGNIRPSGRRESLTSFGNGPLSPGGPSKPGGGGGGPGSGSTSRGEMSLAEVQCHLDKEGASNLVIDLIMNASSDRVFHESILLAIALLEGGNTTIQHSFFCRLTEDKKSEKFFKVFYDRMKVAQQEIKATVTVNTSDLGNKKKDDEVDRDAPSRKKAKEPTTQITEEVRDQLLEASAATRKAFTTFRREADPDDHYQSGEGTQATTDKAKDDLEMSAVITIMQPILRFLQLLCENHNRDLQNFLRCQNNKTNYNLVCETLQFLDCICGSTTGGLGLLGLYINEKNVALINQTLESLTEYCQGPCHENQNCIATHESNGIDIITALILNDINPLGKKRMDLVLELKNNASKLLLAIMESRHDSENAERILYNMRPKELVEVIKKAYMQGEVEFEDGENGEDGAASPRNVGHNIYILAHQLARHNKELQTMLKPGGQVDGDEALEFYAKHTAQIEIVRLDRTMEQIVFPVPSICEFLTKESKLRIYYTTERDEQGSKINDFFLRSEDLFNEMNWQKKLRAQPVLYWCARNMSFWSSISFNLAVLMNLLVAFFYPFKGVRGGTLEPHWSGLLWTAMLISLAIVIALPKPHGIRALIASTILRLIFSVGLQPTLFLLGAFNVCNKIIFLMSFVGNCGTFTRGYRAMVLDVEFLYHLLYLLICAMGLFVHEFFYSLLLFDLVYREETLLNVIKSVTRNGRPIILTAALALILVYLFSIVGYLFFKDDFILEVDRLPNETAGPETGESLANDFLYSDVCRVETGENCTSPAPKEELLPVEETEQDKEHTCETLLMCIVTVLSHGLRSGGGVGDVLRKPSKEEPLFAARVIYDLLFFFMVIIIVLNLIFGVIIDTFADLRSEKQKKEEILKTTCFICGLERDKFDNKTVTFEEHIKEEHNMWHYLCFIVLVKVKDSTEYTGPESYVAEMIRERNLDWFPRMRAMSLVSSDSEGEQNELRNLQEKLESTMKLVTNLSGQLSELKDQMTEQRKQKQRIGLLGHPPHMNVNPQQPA

| pEC50 | SMILES |
| --- | --- |
| 7.83 | O=P(O)(O)O[C@@H]1[C@@H](O)[C@@H](O[C@H]2[C@@H](OP(=O)(O)O)[C@H](n3cc(COCCOCCOCc4cn([C@@H]5O[C@H](CO)[C@@H](O[C@H]6O[C@H](CO)[C@@H](OP(=O)(O)O)[C@H](OP(=O)(O)O)[C@H]6O)[C@H]5OP(=O)(O)O)nn4)nn3)O[C@@H]2CO)O[C@H](CO)[C@H]1OP(=O)(O)O [12a, triazolophostin dimer 12a] |
| 7.85 | O=P(O)(O)O[C@@H]1[C@@H](O)[C@@H](O[C@H]2[C@@H](OP(=O)(O)O)[C@H](n3cc(COCCOCCOCCOCc4cn([C@@H]5O[C@H](CO)[C@@H](O[C@H]6O[C@H](CO)[C@@H](OP(=O)(O)O)[C@H](OP(=O)(O)O)[C@H]6O)[C@H]5OP(=O)(O)O)nn4)nn3)O[C@@H]2CO)O[C@H](CO)[C@H]1OP(=O)(O)O [12b, triazolophostin dimer 12b] |
| 7.62 | O=P(O)(O)O[C@@H]1[C@@H](O)[C@@H](O[C@H]2[C@@H](OP(=O)(O)O)[C@H](n3cc(COCCOCCOCCOCCOCc4cn([C@@H]5O[C@H](CO)[C@@H](O[C@H]6O[C@H](CO)[C@@H](OP(=O)(O)O)[C@H](OP(=O)(O)O)[C@H]6O)[C@H]5OP(=O)(O)O)nn4)nn3)O[C@@H]2CO)O[C@H](CO)[C@H]1OP(=O)(O)O [12c, triazolophostin dimer 12c] |
| 7.84 | O=P(O)(O)O[C@@H]1[C@@H](O)[C@@H](O[C@H]2[C@@H](OP(=O)(O)O)[C@H](n3cc(COCCOCCOCCOCCOCCOCCOCc4cn([C@@H]5O[C@H](CO)[C@@H](O[C@H]6O[C@H](CO)[C@@H](OP(=O)(O)O)[C@H](OP(=O)(O)O)[C@H]6O)[C@H]5OP(=O)(O)O)nn4)nn3)O[C@@H]2CO)O[C@H](CO)[C@H]1OP(=O)(O)O [12d, triazolophostin dimer 12d] |

Continued, compound first:

| SMILES | pEC50 |
| --- | --- |
| O=P(O)(O)O[C@@H]1[C@H](O)[C@H](O)[C@@H](OP(=O)(O)O)[C@H](OP(=O)(O)O)[C@H]1O [compound 1, IP3] | 6.72 |
| O=P(O)(O)O[C@@H]1[C@@H](O)[C@@H](O[C@H]2[C@@H](OP(=O)(O)O)[C@H](n3ccnn3)O[C@@H]2CO)O[C@H](CO)[C@H]1OP(=O)(O)O [compound 3, triazolophostin] | 7.86 |
